Several values for one entry are separate records, joined by “and”; a condition that tells them apart may be missing. Equal values may be shown once. Inconclusive results and toxic doses are left out.
Tested on: B6C3F1 mice, Lewis lung carcinoma iv, survival T/C
Assay: NCI In Vivo Anticancer Drug Screen. Data for tumor model Lewis Lung Carcinoma (intravenous) in B6C3F1 mice
Details: endpoint: median survival time, schedule: Q01DX009 (ip), higher = longer survival
Procedure, shortened: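 Antitumor activity is assessed in tumor-bearing mice by comparing survival after compound treatment against vehicle-treated controls, reported as a T/C ratio.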

[1] = dose: 12.5 mg/kg/injection, vehicle: Klucel (hydroxypropylcellulose) (HPC)
[2] = dose: 25.0 mg/kg/injection, vehicle: Klucel (hydroxypropylcellulose) (HPC)
[3] = dose: 100.0 mg/kg/injection, vehicle: Klucel (hydroxypropylcellulose) (HPC)
[4] = dose: 200.0 mg/kg/injection, vehicle: Klucel (hydroxypropylcellulose) (HPC)
[5] = dose: 400.0 mg/kg/injection, vehicle: Klucel (hydroxypropylcellulose) (HPC)
[6] = dose: 50.0 mg/kg/injection, vehicle: Klucel (hydroxypropylcellulose) (HPC)
[7] = dose: 6.25 mg/kg/injection, vehicle: saline with Tween-80
[8] = dose: 12.5 mg/kg/injection, vehicle: saline with Tween-80
[9] = dose: 25.0 mg/kg/injection, vehicle: saline with Tween-80
[10] = dose: 50.0 mg/kg/injection, vehicle: saline with Tween-80
[11] = dose: 12.5 mg/kg/injection, vehicle: suspension in saline
[12] = dose: 25.0 mg/kg/injection, vehicle: suspension in saline
[13] = dose: 50.0 mg/kg/injection, vehicle: suspension in saline
[14] = dose: 100.0 mg/kg/injection, vehicle: suspension in saline
[15] = dose: 200.0 mg/kg/injection, vehicle: suspension in saline
[16] = dose: 12.5 mg/kg/injection, vehicle: saline

Q: Which T/C (dose: 3.0 mg/kg/injection, vehicle: distilled water + alcohol) does the source give for `CCOC(=O)c1ccc(NN=NCCF)cc1` here?
A: 98 % of control

Q: What about the T/C (dose: 3.12 mg/kg/injection, vehicle: distilled water + Tween-80) of the same compound?
A: 104 % of control

Q: What about the T/C (dose: 6.0 mg/kg/injection, vehicle: distilled water + alcohol) of the same compound?
A: 96 % of control

Q: What about the T/C (dose: 6.25 mg/kg/injection, vehicle: distilled water + Tween-80) of the same compound?
A: 113 % of control

Q: What about the T/C (dose: 12.5 mg/kg/injection, vehicle: distilled water + Tween-80) of the same compound?
A: 98 % of control

Q: And the T/C (dose: 12.5 mg/kg/injection, vehicle: distilled water + alcohol)?
A: 103 % of control

Q: And the T/C (dose: 25.0 mg/kg/injection, vehicle: distilled water + Tween-80)?
A: 113 % of control

Q: And the T/C (dose: 25.0 mg/kg/injection, vehicle: distilled water + alcohol)?
A: 101 % of control

Q: And the T/C (dose: 50.0 mg/kg/injection, vehicle: distilled water + alcohol)?
A: 98 % of control

Q: And the T/C (dose: 100.0 mg/kg/injection, vehicle: distilled water + alcohol)?
A: 98 % of control

Q: What does the source list for `COc1ccc2ccccc2c1C1NC(=O)c2ccccc2N1` (stereo not given)?
A: T/C [1]: 97 % of control; T/C [2]: 100 % of control; T/C [3]: 99 % of control; T/C [4]: 101 % of control; T/C [5]: 101 % of control

Q: How did the T/C (dose: 1.25 mg/kg/injection, vehicle: saline with Tween-80) turn out when `CCN1/C(=C/C=C/C=C\C=C\c2sc3ccc4ccccc4c3[n+]2CC)Sc2ccc3ccccc3c21` was run?
A: 104 % of control

Q: And the T/C (dose: 2.5 mg/kg/injection, vehicle: saline with Tween-80)?
A: 100 % of control and 103 % of control

Q: And the T/C (dose: 5.0 mg/kg/injection, vehicle: saline with Tween-80)?
A: 104 % of control

Q: And the T/C (dose: 10.0 mg/kg/injection, vehicle: saline with Tween-80)?
A: 98 % of control

Q: And the T/C (dose: 20.0 mg/kg/injection, vehicle: saline with Tween-80)?
A: 103 % of control

Q: `Nc1ncnc2c1nnn2C1OC(CO)C(O)C1O` (stereo not given) was tested. Which T/C [1] did it give?
A: 110 % of control

Q: And the T/C [2]?
A: 103 % of control

Q: And the T/C [6]?
A: 105 % of control

Q: Which results are given for `C[CH2][Ge]([CH2]C)[CH2]C.C[CH2][Ge]([CH2]C)[CH2]C.C[CH2][Ge]([CH2]C)[O][Ge]([CH2]C)[CH2]C`?
A: T/C [7]: 105 % of control; T/C [8]: 106 % of control; T/C [9]: 106 % of control; T/C [10]: 101 % of control; T/C (dose: 100.0 mg/kg/injection, vehicle: saline with Tween-80): 113 % of control

Q: With `Cc1cn(C2CC(F)C(CO)O2)c(=O)[nH]c1=O` (stereo not given) as the compound, how does the T/C [11] read?
A: 106 % of control

Q: And the T/C [12]?
A: 103 % of control

Q: And the T/C [13]?
A: 106 % of control

Q: What about the T/C [14] of the same compound?
A: 100 % of control

Q: And the T/C [15]?
A: 121 % of control

Q: And the T/C (dose: 400.0 mg/kg/injection, vehicle: suspension in saline)?
A: 122 % of control

Q: Which results are given for `Cc1c(O)ccc(=O)n1O`?
A: T/C (dose: 16.0 mg/kg/injection, vehicle: saline with Tween-80): 101 % of control; T/C (dose: 32.0 mg/kg/injection, vehicle: saline with Tween-80): 99 % of control; T/C (dose: 64.0 mg/kg/injection, vehicle: saline with Tween-80): 103 % of control; T/C (dose: 128.0 mg/kg/injection, vehicle: saline with Tween-80): 89 % of control

Q: For `O=NN(CCCl)C(=O)NCCO`, which T/C (dose: 0.78 mg/kg/injection, vehicle: water) is on record?
A: 107 % of control

Q: What about the T/C (dose: 3.12 mg/kg/injection, vehicle: water) of the same compound?
A: 184 % of control and 213 % of control and 215 % of control

Q: What about the T/C (dose: 6.25 mg/kg/injection, vehicle: water) of the same compound?
A: 178 % of control and 312 % of control

Q: What about the T/C (dose: 12.5 mg/kg/injection, vehicle: water) of the same compound?
A: 90 % of control

Q: Which T/C (dose: 2.0 mg/kg/injection, vehicle: saline) does the source give for `Cc1c(N)nc(C(CC(N)=O)NCC(N)C(N)=O)nc1C(=O)NC(C(=O)NC(C)C(O)C(C)C(=O)NC(C(=O)NCCc1nc(-c2nc(C(=O)NCCCNCCCc3ccccn3)cs2)cs1)C(C)O)C(OC1OC(CO)C(O)C(O)C1OC1OC(CO)C(O)C(OC(N)=O)C1O)c1cnc[nH]1` (stereo not given) here?
A: 113 % of control

Q: And the T/C (dose: 3.0 mg/kg/injection, vehicle: saline + alcohol)?
A: 108 % of control

Q: What about the T/C (dose: 4.0 mg/kg/injection, vehicle: saline) of the same compound?
A: 110 % of control

Q: What about the T/C (dose: 6.0 mg/kg/injection, vehicle: saline + alcohol) of the same compound?
A: 108 % of control

Q: And the T/C (dose: 6.25 mg/kg/injection, vehicle: saline)?
A: 122 % of control

Q: What about the T/C (dose: 8.0 mg/kg/injection, vehicle: saline) of the same compound?
A: 114 % of control

Q: And the T/C (dose: 12.0 mg/kg/injection, vehicle: saline + alcohol)?
A: 123 % of control

Q: And the T/C [16]?
A: 123 % of control

Q: With `CCC1OC(OC)C=CC1=O` (stereo not given) as the compound, how does the T/C [16] read?
A: 97 % of control

Q: And the T/C (dose: 50.0 mg/kg/injection, vehicle: saline)?
A: 97 % of control

Q: What does the source list for `O=C1NC(=O)NC(C(=O)O)N1`?
A: T/C (dose: 50.0 mg/kg/injection, vehicle: DMSO): 101 % of control; T/C (dose: 100.0 mg/kg/injection, vehicle: DMSO): 105 % of control; T/C (dose: 200.0 mg/kg/injection, vehicle: DMSO): 98 % of control; T/C (dose: 400.0 mg/kg/injection, vehicle: DMSO): 110 % of control

Q: How did the T/C (dose: 300.0 mg/kg/injection, vehicle: suspension in saline) turn out when `O=CCC(O)C(O)C(O)CO` (stereo not given) was run?
A: 102 % of control

Q: What about the T/C (dose: 600.0 mg/kg/injection, vehicle: suspension in saline) of the same compound?
A: 108 % of control

Q: What about the T/C (dose: 1200.0 mg/kg/injection, vehicle: suspension in saline) of the same compound?
A: 114 % of control

Q: And the T/C (dose: 1800.0 mg/kg/injection, vehicle: suspension in saline)?
A: 117 % of control

Q: What about the T/C (dose: 2400.0 mg/kg/injection, vehicle: suspension in saline) of the same compound?
A: 106 % of control

Q: What does the source list for `NC(=S)c1ncn(C2OC(CO)C(O)C2O)c1N` (stereo not given)?
A: T/C [11]: 100 % of control; T/C [12]: 99 % of control; T/C [13]: 106 % of control; T/C [14]: 110 % of control; T/C [15]: 116 % of control

Q: For `COC(=O)Nc1cn2ccc(Sc3ccccc3)cc2n1`, which T/C [6] is on record?
A: 101 % of control

Q: And the T/C [3]?
A: 106 % of control

Q: What about the T/C [4] of the same compound?
A: 101 % of control

Q: With `CN(Cc1cnc2nc(N)nc(N)c2n1)c1ccc(C(=O)N[C@@H](CCC(=O)O)C(=O)O)cc1` as the compound, how does the T/C (dose: 1.0 mg/kg/injection, vehicle: sodium bicarbonate) read?
A: 102 % of control

Q: What about the T/C (dose: 2.0 mg/kg/injection, vehicle: sodium bicarbonate) of the same compound?
A: 107 % of control and 88 % of control

Q: And the T/C (dose: 4.0 mg/kg/injection, vehicle: sodium bicarbonate)?
A: 96 % of control and 102 % of control

Q: How did the T/C [1] turn out when `S=C(Nc1ccc(Cl)c(Cl)c1)N1c2ccccc2-n2cccc2C1c1cccnc1` (stereo not given) was run?
A: 106 % of control

Q: What about the T/C [2] of the same compound?
A: 109 % of control

Q: And the T/C [6]?
A: 98 % of control

Q: What about the T/C [3] of the same compound?
A: 102 % of control

Q: And the T/C [4]?
A: 113 % of control

Q: For `COC(=O)[C@@]12OC[C@]34[C@H]([C@@H](O)[C@@H]1O)[C@@]1(C)CC(=O)C(O)=C(C)[C@@H]1C[C@H]3OC(=O)[C@H](OC(=O)/C=C(\C)C(C)C)[C@@H]24`, which T/C (dose: 0.25 mg/kg/injection, vehicle: saline + alcohol) is on record?
A: 102 % of control

Q: And the T/C (dose: 0.5 mg/kg/injection, vehicle: saline + alcohol)?
A: 104 % of control

Q: What about the T/C (dose: 1.0 mg/kg/injection, vehicle: saline + alcohol) of the same compound?
A: 107 % of control

Q: `CC1=C/C(O)CC(=O)Cc2nc(co2)C(=O)N2CCC=C2C(=O)OC(C(C)C)C(C)/C=C\C(=O)NC/C=C\1` (stereo not given) was tested. Which T/C [2] did it give?
A: 98 % of control

Q: What about the T/C [6] of the same compound?
A: 104 % of control

Q: What about the T/C [3] of the same compound?
A: 92 % of control

Q: What about the T/C [4] of the same compound?
A: 97 % of control

Q: What about the T/C [5] of the same compound?
A: 104 % of control

Q: `CN=S(=O)(OCCCCCOS(=O)(=NC)c1ccccc1)c1ccccc1` (stereo not given) was tested. Which T/C (dose: 3.12 mg/kg/injection, vehicle: saline with Tween-80) did it give?
A: 101 % of control

Q: What about the T/C [7] of the same compound?
A: 105 % of control

Q: What about the T/C [8] of the same compound?
A: 118 % of control

Q: And the T/C [9]?
A: 108 % of control

Q: And the T/C [10]?
A: 122 % of control

— PubChem BioAssay AID276 (DTP/NCI, 2004)
